Series [1] is described as follows: Aggregation property of the compound in PBS buffer at pH 7.4 at 50 uM after 7 days by thioflavin-T fluorescence assay. Format: physicochemical. The conditions noted are these: pH 7.4, 168 h, time 7 day.
Series [2] is described as follows: Amyloidogenic property of compound in PBS buffer at pH 7.4 assessed as fibrillar assembly at 50 uM after 7 days by TEM anlaysis. The settings on record: time 7.0 day.
A short description of series [3]: Amyloidogenic property of compound in PBS buffer at pH 7.4 assessed as fibrillar assembly at 50 uM after 7 days by Congo-Red staining based birefringence anlaysis. The settings on record: time 7.0 day.
Series [4] is filed under the species Homo sapiens. As to the kind of experiment: Inhibition of amyloid beta (1 to 40) (unknown origin) aggregation assessed as fibril formation at protein to ligand concentration ratio of 1:1 to 1:5 after 7 days by thioflavin-T fluorescence assay. The conditions noted are these: time 7.0 day.
The species entered for series [5] is Homo sapiens. Put plainly: Inhibition of amyloid beta (1 to 40) (unknown origin) aggregation at protein to ligand concentration ratio of 1:1 to 1:5 after 7 days by CD spectroscopic analysis. The conditions noted are these: time 7.0 day.
Series [6] is filed under the species Homo sapiens. Put plainly: Inhibition of amyloid beta (1 to 40) (unknown origin) aggregation at protein to ligand concentration ratio of 1:1 to 1:5 after 7 days by FTIR analysis. The settings on record: time 7.0 day.
The species named for series [7] is Homo sapiens. As to the kind of experiment: Inhibition of amyloid beta (1 to 40) (unknown origin) aggregation assessed as fibril formation at protein to ligand concentration ratio of 1:1 to 1:5 after 7 days by TEM analysis. The conditions noted are these: time 7.0 day.
Series [8] is filed under the species Homo sapiens. As to the kind of experiment: Inhibition of amyloid beta (1 to 40) (unknown origin) aggregation assessed as fibril formation at protein to ligand concentration ratio of 1:1 to 1:5 after 7 days by Congo-Red staining based birefringence anlaysis. The settings on record: time 7.0 day.
For series [9], the species on record is Homo sapiens. As to the kind of experiment: Disruption of preformed amyloid beta (1 to 40) (unknown origin) aggregation assessed as reduction in fibril formation at protein to ligand concentration ratio of 1:1 to 1:5 after 7 days by thioflavin-T fluorescence assay. The conditions noted are these: time 7.0 day.
For series [10], the species on record is Homo sapiens. As to the kind of experiment: Disruption of preformed amyloid beta (1 to 40) (unknown origin) aggregation assessed as reduction in fibril formation at protein to ligand concentration ratio of 1:1 to 1:5 after 7 days by CD spectroscopic analysis. The conditions noted are these: time 7.0 day.
Series [11] is filed under the species Homo sapiens. As to the kind of experiment: Disruption of preformed amyloid beta (1 to 40) (unknown origin) aggregation assessed as reduction in fibril formation at protein to ligand concentration ratio of 1:1 to 1:5 after 7 days by FTIR analysis. The conditions noted are these: time 7.0 day.
Series [12] is filed under the species Homo sapiens. Put plainly: Disruption of preformed amyloid beta (1 to 40) (unknown origin) aggregation assessed as reduction in fibril formation at protein to ligand concentration ratio of 1:1 to 1:5 after 4 to 7 days by FTIR analysis. The conditions noted are these: time 4-7 day.
For series [13], the species on record is Homo sapiens. As to the kind of experiment: Disruption of preformed amyloid beta (1 to 40) (unknown origin) aggregation assessed as reduction in fibril formation at protein to ligand concentration ratio of 1:1 to 1:5 after 4 to 7 days by Congo-Red staining based birefringence anlaysis. The conditions noted are these: time 4-7 day.
The species named for series [14] is Homo sapiens. As to the kind of experiment: Inhibition of amyloid beta (1 to 40) (unknown origin)-induced pore formation in large unilamellar vesicles at 10 days pretested 1:5 ratio of amyloid beta (1 to 40) to ligand concentration followed by LUV treatment and measured up to 120 mins by carboxy-fluorescein dye assay. The settings on record: time 10.0 day.
Series [15] is filed under the species Homo sapiens. Put plainly: Inhibition of preformed amyloid beta (1 to 40) (unknown origin)-induced pore formation in large unilamellar vesicles at 10 days pretested 1:5 ratio of amyloid beta (1 to 40) to ligand concentration followed by LUV treatment and measured up to 120 mins by carboxy-fluorescein dye assay. The conditions noted are these: time 10.0 day.

The species named for series [16] is Homo sapiens. As to the kind of experiment: Inhibition of amyloid beta (1 to 40) (unknown origin)-induced pore formation in large unilamellar vesicles at 10 days pretested 1:5 ratio of amyloid beta (1 to 40) to ligand concentration followed by LUV treatment and measured up to 72 hrs by carboxy-fluorescein dye assay. The settings on record: time 10.0 day.
For series [17], the species on record is Homo sapiens. Put plainly: Inhibition of preformed amyloid beta (1 to 40) (unknown origin)-induced pore formation in large unilamellar vesicles at 10 days pretested 1:5 ratio of amyloid beta (1 to 40) to ligand concentration followed by LUV treatment and measured up to 172 hrs by carboxy-fluorescein dye assay. The conditions noted are these: time 10.0 day.

Calls of active or inactive are those of the source. No cut-off for these calls is given here. Residues, ends and D or L forms follow the SMILES beside them. *: point of attachment. OBn = c1ccc(CO*)cc1

On to `CC(=O)N[C@@H](CCCCN)C(=O)N[C@@H](C)C(=O)N[C@@H](CCC(=O)OCc1ccccc1)C(=O)N[C@@H](Cc1ccccc1)C(=O)N[C@@H](Cc1ccccc1)C(=O)N[C@@H](C)C(N)=O` (Ac-KAE(OBn)FFA-NH2), for which the Activity result in [1] is reported as “Not Active”. Besides, the outcome in series [2] and in series [3] was inactive. The inhibition entry in the series listed under Homo sapiens [4], in the series filed under Homo sapiens [5], in the series filed under Homo sapiens [6], in the series listed under Homo sapiens [7] and in the series filed under Homo sapiens [8] was “Active” in each case. Besides, the result in the series listed under Homo sapiens [9], in the series filed under Homo sapiens [10], in the series filed under Homo sapiens [11], in the series listed under Homo sapiens [12] and in the series listed under Homo sapiens [13] was Active.

Turning to `CC(=O)N[C@@H](CCCCN)C(=O)NCC(=O)N[C@@H](CCC(=O)OCc1ccccc1)C(=O)N[C@@H](Cc1ccccc1)C(=O)N[C@@H](Cc1ccccc1)C(=O)N[C@@H](C)C(N)=O` (Ac-KGE(OBn)FFA-NH2), the Activity entry in [1] was “Not Active”. The result in series [2] and in series [3] was inactive. The inhibition entry in the series filed under Homo sapiens [4], in the series listed under Homo sapiens [5], in the series listed under Homo sapiens [6], in the series listed under Homo sapiens [7] and in the series filed under Homo sapiens [8] was “Active” in each case. In addition, the result in the series filed under Homo sapiens [9], in the series listed under Homo sapiens [10], in the series listed under Homo sapiens [11], in the series listed under Homo sapiens [12] and in the series filed under Homo sapiens [13] was Active.

In the case of `CC(=O)N[C@@H](CCCCN)C(=O)N[C@@H](CC(C)C)C(=O)N[C@@H](CCC(=O)OCc1ccccc1)C(=O)N[C@@H](Cc1ccccc1)C(=O)N[C@@H](Cc1ccccc1)C(=O)N[C@@H](C)C(N)=O` (Ac-KLE(OBn)FFA-NH2), in series [1], the Activity entry is listed as “Not Active”. Moreover, the outcome in series [2] and in [3] was inactive. For the same compound, the inhibition result in the series listed under Homo sapiens [4], in the series filed under Homo sapiens [5], in the series filed under Homo sapiens [6], in the series filed under Homo sapiens [7], in the series listed under Homo sapiens [8] and in the series listed under Homo sapiens [14] was “Active” in each case. For the same compound, the inhibition entry in the series listed under Homo sapiens [15], in the series filed under Homo sapiens [16] and in the series listed under Homo sapiens [17] was “Active” each time. Moreover, the outcome in the series filed under Homo sapiens [9], in the series filed under Homo sapiens [10], in the series listed under Homo sapiens [11], in the series listed under Homo sapiens [12] and in the series listed under Homo sapiens [13] was Active.

Source of the values: ChEMBL document CHEMBL4715899, “In-situ side-chain peptide cyclization as a breaker strategy against the amyloid aggregating peptide” (Bioorg Med Chem, 2021).
